The test system of one assay is AMPKalpha. Kind of assay: Kinase selectivity assay (CEREP, HTRF). Format: biochemical, human. How it is done:
The inhibitory activity of selected compounds was evaluated against a panel of 45 different kinase enzymes by CEREP, France. The assays were performed using standard HTRF assay methods as documented by CEREP against the human orthologues of Abl kinase, Akt1/PKBa, AMPKa, BMX kinase (Etk), Brk, CaMK2a, CaMK4, CDC2/CDK1 (cycB), CHK1, CHK2, c-Met kinase, CSK, EphB4 kinase, ERK1, ERK2 (P42mapk), FGFR2 kinase, FGFR4 kinase, FLT-1 kinase (VEGFR1), FLT-3 kinase, Fyn kinase, IGF1R kinase, IRK (InsR), JNK 2, KDR kinase (VEGFR2), Lck kinase, Lyn kinase, MAPKAPK2, MEK1/MAP2K1, p38a kinase, p38d kinase, p38g kinase, PDGFRb kinase, PDK1, PKA, PKCa, PKCb1, PKCb2, PKCg, Ret kinase, ROCK2, RSK2, Src kinase, Syk, and TRKA. The % Inhibition was determined by the formula; % Inhibition=100×(1−(experimental value−background value)/(high activity control−background value)).

The subject of assay [1] is MDA-MB-231 breast cancer cell line. Kind of assay: Cell growth inhibition, SRB assay, extended panel. Format: cell-based. The conditions noted are these: Homo sapiens, MDA-MB-231, read-out: GI50 Range MDA-MB-231.
Method: Breast cancer and normal cells were seeded at various concentrations, ranging from 1500 to 4000 per 80 μl according to cell growth rate, into 96-well plates 24 hours before compound overlay. Each 10 mM stock solution in 100% DMSO of the compounds was diluted with Opti-MEM I Reduced-Serum Medium (Invitrogen, Canada) to make concentration ranges from 50 nM to 250 μM. 20 μl from each concentration was added to the cells to make the final concentration range from 10 nM to 50 μM. The cells were cultured at 37° C. for 5 days before the Sulforhodamine B (SRB) assay was performed to assess cell survival. SRB is a water-soluble dye that binds to the basic amino acids of cellular proteins. Thus, colorimetric measurement of the bound dye provides an estimate of the total protein mass and is related to cell number. The cells were fixed in situ by gently aspirating off the culture media and adding 50 μl ice-cold 10% Tri-chloroacetic Acid (TCA) per well and incubation at 4° C. for 30-60 min. The plates were washed with tap water five times and allowed to air dry for 5 min. […] Absorbances were read at 570 nm. The cell survival percentage at each compound concentration was calculated over the cell DMSO control, which was growing in the presence of 0.1% DMSO (0.5% in the case of 50 μM compounds). Cell viability GI50 values were calculated using GraphPad PRISM software (GraphPad Software, Inc.).
For assay [2], the system named is BT-474 breast cancer cell line. As to the kind of experiment: Cell growth inhibition, SRB assay, extended panel. The assay is classed as cell-based. The following applies: Homo sapiens, BT-474, read-out: GI50 Range BT-474. How it is done:
(§1) Breast cancer cells (MCF-7, MDA-MB-468 and HCC1954), colon cancer cells (SW620) and lung cancer cells (A549), together with human mammary epithelial primary cells (HMEC) were seeded (1000 to 4000 per 80 μl per well depending on the cell growth rate) into 96-well plates 24 hours before compound overlay. Compounds were prepared as 10 mM stock solutions in 100% DMSO which were diluted with DMEM (Dulbecco's Modified Eagle's Medium) cell growth Medium (Invitrogen, Canada) containing 10% FBS (Fetal Bovine Serum) to concentrations ranging from 50 nM to 250 μM. Aliquots (20 μl) from each concentration were overlaid to 80 μl of the pre-seeded cells in the 96-plates to make final concentrations of 10 nM to 50 μM. The cells were cultured for 5 days before the Sulforhodamine B (SRB) assay was performed to determine the compound's cell growth inhibition activity.
(§2) Sulforhodamine B (Sigma, Canada) is a water-soluble dye that binds to the basic amino acids of cellular proteins. Thus, colorimetric measurement of the bound dye provides an estimate of the total protein mass that is related to the cell number. The cells are fixed in situ by gently aspirating off the culture media and adding 50 μl ice cold 10% Trichloroacetic Acid (TCA) per well and incubated at 4° C. for 30-60 min. The plates are washed with water five times and allowed to air dry for 5 min. Addition of 50 μl 0.4% (w/v) SRB solution in 1% (v/v) acetic acid to each well and incubatation for […] at RT completes the staining reaction. Following staining, plates are washed four times with 1% acetic acid to remove unbound dye and then allowed to air dry for 5 min. The stain is solubilized with 100 μl of 10 mM Tris pH 10.5 per well. Absorbance is read at 570 nm.
(§3) The percentage (%) of relative growth inhibition was calculated by comparing to DMSO-treated only cells (100%). GI50's were determined for compounds with cytotoxic activity. The GI50 was calculated using GraphPad PRISM software (GraphPad Software, Inc., USA).
(§4) The SRB assay described above was used to assay test compounds against the extended panel (Table 6).
On the technique in general: In SRB staining, fixed cells bind dye roughly in proportion to their protein.

The subject of assay [3] is SKBr-3 breast cancer cell line. Kind of assay: Cell growth inhibition, SRB assay, extended panel. The assay is classed as cell-based. The conditions noted are these: Homo sapiens, SK-BR-3, read-out: GI50 Range SKBr-3. How it is done: as §1, §2, §3, §4
In assay [4] the test system is SW626 ovarian cancer cell line. As to the kind of experiment: Cell growth inhibition, SRB assay, extended panel. Format: cell-based. The following applies: Homo sapiens, SW626, read-out: GI50 Range SW626. How it is done:
as §1, §2, §3, §4

Assay [5] relates to A172 brain cancer cell line. Kind of assay: Cell growth inhibition, SRB assay, extended panel. The assay is classed as cell-based. The following applies: Homo sapiens, A 172, read-out: GI50 Range A172. How it is done: as §1, §2, §3, §4
Assay [6] concerns Colo 205 colon cancer cell line. As to the kind of experiment: Cell growth inhibition, SRB assay, extended panel. The following applies: Homo sapiens, COLO 205, read-out: GI50 Range Colo 205. The assay is classed as cell-based. How it is done: as §1, §2, §3, §4
Assay [7] has as its system SK-OV-3 ovarian cancer cell line. As to the kind of experiment: Cell growth inhibition, SRB assay, extended panel. Format: cell-based. The following applies: Homo sapiens, SK-OV-3, read-out: GI50 Range SK-OV-3. How it is done: as §1, §2, §3, §4
Assay [8] relates to Hs578T breast cancer cell line. As to the kind of experiment: Cell growth inhibition, SRB assay, extended panel. The assay is classed as cell-based. The conditions noted are these: Homo sapiens, Hs-578T, read-out: GI50 Range Hs578T. How it is done:
as §1, §2, §3, §4

Assay [9] relates to PC-3 prostate cancer cell line. Kind of assay: Cell growth inhibition, SRB assay, extended panel. Format: cell-based. The conditions noted are these: read-out: GI50 Range PC-3. How it is done:
as §1, §2, §3, §4

In another assay the test system is 518A2 melanoma cell line. Kind of assay: Cell growth inhibition, SRB assay, extended panel. Format: cell-based. The conditions noted are these: Homo sapiens, 518A2, read-out: GI50 Range 518A2. How it is done:
as §1, §2, §3, §4

For assay [10], the system named is Hs683 brain cancer cell line. Kind of assay: Cell growth inhibition, SRB assay, extended panel. Format: cell-based. The following applies: Homo sapiens, Hs 683, read-out: GI50 Range Hs683. How it is done:
as §1, §2, §3, §4

Assay [11] deals with HCT-15 colon cancer cell line. Kind of assay: Cell growth inhibition, SRB assay, extended panel. The assay is classed as cell-based. The following applies: Homo sapiens, HCT-15, read-out: GI50 Range HCT-15. How it is done:
as §1, §2, §3, §4

The next assay deals with T1, Aurora A (Homo sapiens, UniProt O14965).
T1 construct: purchased Invitrogen PV3612
T1 sequence (O14965 1-403): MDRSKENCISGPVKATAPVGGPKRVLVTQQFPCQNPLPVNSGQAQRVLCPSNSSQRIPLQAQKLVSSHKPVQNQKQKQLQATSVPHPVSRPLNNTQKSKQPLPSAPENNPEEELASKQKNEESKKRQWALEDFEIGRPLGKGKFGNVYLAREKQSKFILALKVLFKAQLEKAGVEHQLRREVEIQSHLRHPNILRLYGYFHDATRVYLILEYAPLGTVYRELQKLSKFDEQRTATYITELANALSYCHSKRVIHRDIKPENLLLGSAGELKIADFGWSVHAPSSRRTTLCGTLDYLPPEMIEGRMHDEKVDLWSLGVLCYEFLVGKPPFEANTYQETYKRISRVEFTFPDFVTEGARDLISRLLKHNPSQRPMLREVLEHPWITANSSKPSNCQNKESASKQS
As to the kind of experiment: Aurora A inhibition assay (Z-Lyte). Format: biochemical. How it is done: Aurora A inhibition was determined using the Z-Lyte assay kit from Invitrogen. The assay was performed using the recommended manufacturer's instructions with 20 nM ATP and 12 nM Aurora A (Invitrogen cat #PV3612). The % inhibition values were determined according to the manufacturer's directions and IC50 values were obtained using a non-linear 4 point logistic curve fit (XLfit4, IDBS)

Data on 3 compounds can be found in patent US8933070B2, “Methods of targeting PTEN mutant diseases and compositions therefor” (University Health Network, priority 2010, dated 2015).

As to `CN(C)Cc1ccc(/C=C/c2n[nH]c3cc([C@H]4C[C@@]45C(=O)Nc4ccccc45)ccc23)cc1` (racemic) [Compound 35], the “% Inhibition at 10 μM Concentration” value with AMPKalpha came to 69%.

In the case of `COc1ccc2c(c1)/C(=C\c1ccc3c(/C=C/c4ccc(N5CCN(C)CC5)nc4)n[nH]c3c1)C(=O)N2` [Compound 3], the 50% growth inhibitory concentration (GI50) in assay [1], in assay [2], in assay [3], in assay [4], in [5] and in [6] was under 5 µM throughout. Moreover, the GI50 (in assay [7]; in [8]; in assay [9]; with 518A2 melanoma cell line; in assay [10]; in [11]) was under 5 µM throughout. Moreover, the 50% inhibitory concentration (IC50) at Aurora A (read-out: IC50 Ranges Aurora A) is under 5 µM.

For the compound `COc1ccc2c(c1)[C@@]1(C[C@@H]1c1ccc3c(-c4ccc(N5CCN(C)CC5)nc4)n[nH]c3c1)C(=O)N2` (racemic) [Compound 2], at Aurora A (dose of 10 μM, read-out: Aurora A relative inhibition percentage), the inhibition at 10 µM was under 50%.

A word on the % Inhibition: it is how much of the control response was suppressed. Read a high % Inhibition as a response far below the control. By GI50 is commonly meant the concentration at which growth is held to half of that of the control. One may read the IC50 as the concentration that gives 50% inhibition. One may read the inhibition as how much of the control response was suppressed.
